Experimental data published in patent US12077503B2, “Substituted cyclic amides and their use as herbicides” (FMC CORPORATION, priority 2015, dated 2024).

Columns and labels:
Format in all cases: in vivo
corn (Zea mays) [1] = assay: Test G Pre-Emergence Protocol; conditions: Zea mays, pre-emergence, 312 h, evaluated after 13 days; for plant injury at 15.625 g/ha: 15.625 g ai/ha; for plant injury at 15.625 g/ha / plant injury at 250 g/ha: read-out: Corn damage rating (100=total damage to plant; 0=no damage to plant); for plant injury at 62.5 g/ha: 62.5 g ai/ha, 100=total damage to plant, 0=no damage to plant, read-out: plant damage rating, Corn; for plant injury at 250 g/ha: 250 g ai/ha
Outline: (§1)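 Spraying took place one day after sowing, at 15.625, 62.5 or 250 g/ha, using an acetone/water (50:50) spray solution containing 0.5% Tween 20. Plants were kept under glasshouse conditions (24/16 °C, 14 h light, 65% humidity, watered twice daily), and injury was rated 0–100 at day 13.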

[2] = system: redroot pigweed (Amaranthus retroflexus); assay: Test G Pre-Emergence Protocol; conditions: Amaranthus retroflexus, pre-emergence, 312 h, evaluated after 13 days; for pest or weed control at 15.625 g/ha: 15.625 g ai/ha; for pest or weed control at 15.625 g/ha / pest or weed control at 250 g/ha: read-out: Pigweed, Redroot damage rating (100=total damage to plant; 0=no damage to plant); for pest or weed control at 62.5 g/ha: 62.5 g ai/ha, 100=total damage to plant, 0=no damage to plant, read-out: plant damage rating, Pigweed, Redroot; for pest or weed control at 250 g/ha: 250 g ai/ha
Outline: as §1

[3] = system: giant foxtail (Setaria faberi); assay: Test G Pre-Emergence Protocol; conditions: Setaria faberi, pre-emergence, 312 h, evaluated after 13 days; for pest or weed control at 15.625 g/ha: 15.625 g ai/ha; for pest or weed control at 15.625 g/ha / pest or weed control at 250 g/ha: read-out: Foxtail, Giant damage rating (100=total damage to plant; 0=no damage to plant); for pest or weed control at 62.5 g/ha: 62.5 g ai/ha, 100=total damage to plant, 0=no damage to plant, read-out: plant damage rating, Foxtail, Giant; for pest or weed control at 250 g/ha: 250 g ai/ha
Outline: as §1

[4] = system: ivy-leaved morning glory (Ipomoea hederacea); assay: Test G Pre-Emergence Protocol; conditions: Ipomoea, pre-emergence, 312 h, evaluated after 13 days; for pest or weed control at 15.625 g/ha: 15.625 g ai/ha, read-out: Morning-glory, Ivy-leaved damage rating (100=total damage to plant; 0=no damage to plant); for pest or weed control at 62.5 g/ha: 62.5 g ai/ha, 100=total damage to plant, 0=no damage to plant, read-out: plant damage rating, Morningglory, Ivy-leaved; for pest or weed control at 250 g/ha: 250 g ai/ha, read-out: Morningglory, Ivy-leaved damage rating (100=total damage to plant; 0=no damage to plant)
Outline: as §1

[5] = system: velvetleaf (Abutilon theophrasti); assay: Test G Pre-Emergence Protocol; conditions: Abutilon theophrasti, pre-emergence, 312 h, evaluated after 13 days; for pest or weed control at 15.625 g/ha: 15.625 g ai/ha; for pest or weed control at 15.625 g/ha / pest or weed control at 250 g/ha: read-out: Velvetleaf damage rating (100=total damage to plant; 0=no damage to plant); for pest or weed control at 62.5 g/ha: 62.5 g ai/ha, 100=total damage to plant, 0=no damage to plant, read-out: plant damage rating, Velvetleaf; for pest or weed control at 250 g/ha: 250 g ai/ha
Outline: as §1

[6] = system: barnyardgrass (Echinochloa crus-galli); assay: Test G Pre-Emergence Protocol; conditions: Echinochloa crus-galli, pre-emergence, 312 h, evaluated after 13 days; for pest or weed control at 15.625 g/ha: 15.625 g ai/ha, read-out: Barnyard grass damage rating (100=total damage to plant; 0=no damage to plant); for pest or weed control at 62.5 g/ha: 62.5 g ai/ha, 100=total damage to plant, 0=no damage to plant, read-out: plant damage rating, Barnyardgrass; for pest or weed control at 250 g/ha: 250 g ai/ha, read-out: Barnyardgrass damage rating (100=total damage to plant; 0=no damage to plant)
Outline: as §1

corn (Zea mays) [7] = assay: Test G Post-Emergence Protocol; conditions: Zea mays, post-emergence, 312 h; for plant injury at 15.625 g/ha: 15.625 g ai/ha, evaluated after 13 days (100=total damage to plant; 0=no damage to plant), read-out: Corn damage rating; for plant injury at 62.5 g/ha: 62.5 g ai/ha, read-out: Corn damage rating (100=total damage to plant; 0=no damage to plant); for plant injury at 62.5 g/ha / plant injury at 250 g/ha: evaluated after 13 days; for plant injury at 250 g/ha: 250 g ai/ha, read-out: damage to plant, Corn (100=total damage to plant; 0=no damage to plant)
Outline: (§2)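 Pot-grown seedlings, 8 days old, raised in a glasshouse at 24/16 °C day/night with 14 h light and 65% humidity, were sprayed post-emergence with test compound in acetone/water (50:50) plus 0.5% Tween 20 at 15.625, 62.5 or 250 g/ha. Damage was scored visually 13 days later on a 0–100 scale (100 = total damage).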

[8] = system: redroot pigweed (Amaranthus retroflexus); assay: Test G Post-Emergence Protocol; conditions: Amaranthus retroflexus, post-emergence, 312 h; for pest or weed control at 15.625 g/ha: 15.625 g ai/ha, evaluated after 13 days (100=total damage to plant; 0=no damage to plant), read-out: Pigweed, Redroot damage rating; for pest or weed control at 62.5 g/ha: 62.5 g ai/ha, read-out: Pigweed, Redroot damage rating (100=total damage to plant; 0=no damage to plant); for pest or weed control at 62.5 g/ha / pest or weed control at 250 g/ha: evaluated after 13 days; for pest or weed control at 250 g/ha: 250 g ai/ha, read-out: damage to plant, Pigweed, Redroot (100=total damage to plant; 0=no damage to plant)
Outline: as §2

[9] = system: giant foxtail (Setaria faberi); assay: Test G Post-Emergence Protocol; conditions: Setaria faberi, post-emergence, 312 h; for pest or weed control at 15.625 g/ha: 15.625 g ai/ha, evaluated after 13 days (100=total damage to plant; 0=no damage to plant), read-out: Foxtail, Giant damage rating; for pest or weed control at 62.5 g/ha: 62.5 g ai/ha, read-out: Foxtail, Giant damage rating (100=total damage to plant; 0=no damage to plant); for pest or weed control at 62.5 g/ha / pest or weed control at 250 g/ha: evaluated after 13 days; for pest or weed control at 250 g/ha: 250 g ai/ha, read-out: damage to plant, Foxtail, Giant (100=total damage to plant; 0=no damage to plant)
Outline: as §2

[10] = system: ivy-leaved morning glory (Ipomoea hederacea); assay: Test G Post-Emergence Protocol; conditions: Ipomoea, post-emergence, 312 h; for pest or weed control at 15.625 g/ha: 15.625 g ai/ha, evaluated after 13 days (100=total damage to plant; 0=no damage to plant), read-out: Morningglory, Ivy-leaved damage rating; for pest or weed control at 62.5 g/ha: 62.5 g ai/ha, read-out: Morningglory, Ivy-leaved damage rating (100=total damage to plant; 0=no damage to plant); for pest or weed control at 62.5 g/ha / pest or weed control at 250 g/ha: evaluated after 13 days; for pest or weed control at 250 g/ha: 250 g ai/ha, read-out: damage to plant, Morningglory, Ivy-leaved (100=total damage to plant; 0=no damage to plant)
Outline: as §2

[11] = system: velvetleaf (Abutilon theophrasti); assay: Test G Post-Emergence Protocol; conditions: Abutilon theophrasti, post-emergence, 312 h; for pest or weed control at 15.625 g/ha: 15.625 g ai/ha, evaluated after 13 days (100=total damage to plant; 0=no damage to plant), read-out: Velvetleaf damage rating; for pest or weed control at 62.5 g/ha: 62.5 g ai/ha, read-out: Velvetleaf damage rating (100=total damage to plant; 0=no damage to plant); for pest or weed control at 62.5 g/ha / pest or weed control at 250 g/ha: evaluated after 13 days; for pest or weed control at 250 g/ha: 250 g ai/ha, read-out: damage to plant, Velvetleaf (100=total damage to plant; 0=no damage to plant)
Outline: as §2

[12] = system: barnyardgrass (Echinochloa crus-galli); assay: Test G Post-Emergence Protocol; conditions: Echinochloa crus-galli, post-emergence, 312 h; for pest or weed control at 15.625 g/ha: 15.625 g ai/ha, evaluated after 13 days (100=total damage to plant; 0=no damage to plant), read-out: Barnyardgrass damage rating; for pest or weed control at 62.5 g/ha: 62.5 g ai/ha, read-out: Barnyardgrass damage rating (100=total damage to plant; 0=no damage to plant); for pest or weed control at 62.5 g/ha / pest or weed control at 250 g/ha: evaluated after 13 days; for pest or weed control at 250 g/ha: 250 g ai/ha, read-out: damage to plant, Barnyardgrass (100=total damage to plant; 0=no damage to plant)
Outline: as §2

Structure (SMILES): Cc1c(NC(=O)[C@@H]2C(=O)N(C)C[C@H]2c2ccc(C(F)(F)F)cc2)ccnc1Cl (racemic) [Compound 1631]
- plant injury at 15.625 g/ha (corn (Zea mays) [1]): 0%
- plant injury at 62.5 g/ha (corn (Zea mays) [1]): 10%
- plant injury at 250 g/ha (corn (Zea mays) [1]): 0%
- pest or weed control at 15.625 g/ha [2]: 0%
- pest or weed control at 62.5 g/ha [2]: 20%
- pest or weed control at 250 g/ha [2]: 10%
- pest or weed control at 15.625 g/ha [3]: 0%
- pest or weed control at 62.5 g/ha [3]: 10%
- pest or weed control at 250 g/ha [3]: 70%
- pest or weed control at 15.625 g/ha [4]: 0%
- pest or weed control at 62.5 g/ha [4]: 20%
- pest or weed control at 250 g/ha [4]: 30%
- pest or weed control at 15.625 g/ha [5]: 0%
- pest or weed control at 62.5 g/ha [5]: 0%
- pest or weed control at 250 g/ha [5]: 0%
- pest or weed control at 15.625 g/ha [6]: 0%
- pest or weed control at 62.5 g/ha [6]: 0%
- pest or weed control at 250 g/ha [6]: 0%
- plant injury at 15.625 g/ha (corn (Zea mays) [7]): 0%
- plant injury at 62.5 g/ha (corn (Zea mays) [7]): 0%
- plant injury at 250 g/ha (corn (Zea mays) [7]): 10%
- pest or weed control at 15.625 g/ha [8]: 0%
- pest or weed control at 62.5 g/ha [8]: 20%
- pest or weed control at 250 g/ha [8]: 20%
- pest or weed control at 15.625 g/ha [9]: 0%
- pest or weed control at 62.5 g/ha [9]: 60%
- pest or weed control at 250 g/ha [9]: 70%
- pest or weed control at 15.625 g/ha [10]: 0%
- pest or weed control at 62.5 g/ha [10]: 20%
- pest or weed control at 250 g/ha [10]: 20%
- pest or weed control at 15.625 g/ha [11]: 0%
- pest or weed control at 62.5 g/ha [11]: 10%
- pest or weed control at 250 g/ha [11]: 0%
- pest or weed control at 15.625 g/ha [12]: 0%
- pest or weed control at 62.5 g/ha [12]: 10%
- pest or weed control at 250 g/ha [12]: 10%

Structure (SMILES): Cc1cc(C(F)(F)F)ccc1[C@@H]1CN(C)C(=O)[C@H]1C(=O)Nc1ccccc1F (racemic) [Compound 1415]
- plant injury at 15.625 g/ha (corn (Zea mays) [1]): 0%
- plant injury at 62.5 g/ha (corn (Zea mays) [1]): 0%
- plant injury at 250 g/ha (corn (Zea mays) [1]): 0%
- pest or weed control at 15.625 g/ha [2]: 10%
- pest or weed control at 62.5 g/ha [2]: 0%
- pest or weed control at 250 g/ha [2]: 10%
- pest or weed control at 15.625 g/ha [3]: 10%
- pest or weed control at 62.5 g/ha [3]: 70%
- pest or weed control at 250 g/ha [3]: 80%
- pest or weed control at 15.625 g/ha [4]: 0%
- pest or weed control at 62.5 g/ha [4]: 0%
- pest or weed control at 250 g/ha [4]: 0%
- pest or weed control at 15.625 g/ha [5]: 0%
- pest or weed control at 62.5 g/ha [5]: 0%
- pest or weed control at 250 g/ha [5]: 0%
- pest or weed control at 15.625 g/ha [6]: 10%
- pest or weed control at 62.5 g/ha [6]: 50%
- pest or weed control at 250 g/ha [6]: 70%
- plant injury at 15.625 g/ha (corn (Zea mays) [7]): 20%
- plant injury at 62.5 g/ha (corn (Zea mays) [7]): 10%
- plant injury at 250 g/ha (corn (Zea mays) [7]): 20%
- pest or weed control at 15.625 g/ha [8]: 10%
- pest or weed control at 62.5 g/ha [8]: 10%
- pest or weed control at 250 g/ha [8]: 30%
- pest or weed control at 15.625 g/ha [9]: 20%
- pest or weed control at 62.5 g/ha [9]: 60%
- pest or weed control at 250 g/ha [9]: 70%
- pest or weed control at 15.625 g/ha [10]: 10%
- pest or weed control at 62.5 g/ha [10]: 10%
- pest or weed control at 250 g/ha [10]: 20%
- pest or weed control at 15.625 g/ha [11]: 10%
- pest or weed control at 62.5 g/ha [11]: 0%
- pest or weed control at 250 g/ha [11]: 20%
- pest or weed control at 15.625 g/ha [12]: 20%
- pest or weed control at 62.5 g/ha [12]: 30%
- pest or weed control at 250 g/ha [12]: 60%
